Reference: the supplement of paper PMC4628005

What was measured:
Details in all cases: drug exposure time: 96 h
Sirolimus = compound: CO[C@H]1C[C@@H]2CC[C@@H](C)[C@@](O)(O2)C(=O)C(=O)N2CCCC[C@H]2C(=O)O[C@H]([C@H](C)C[C@@H]2CC[C@@H](O)[C@H](OC)C2)CC(=O)[C@H](C)/C=C(\C)[C@@H](O)[C@@H](OC)C(=O)[C@H](C)C[C@H](C)/C=C/C=C/C=C/1C [Sirolimus]
Method: (§1)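 Same SRB 96 h IC50 screen on breast cancer cell lines (RPMI 1640 + 10% FBS, collagen I-coated 96-well plates, triplicates, 12 dilutions), for drugs with a different dose range: Bortezomib up to 2e-5 M; Sirolimus and 17-AAG up to 2e-6 M. Sirolimus values at the 2e-6 M top dose are censored.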

17-AAG = compound: C=CCNC1=C2C[C@@H](C)C[C@H](OC)[C@H](O)[C@@H](C)/C=C(\C)[C@H](OC(N)=O)[C@@H](OC)/C=C\C=C(/C)C(=O)NC(=CC1=O)C2=O [17-AAG]
Method: as §1

Bortezomib = compound: CC(C)C[C@H](NC(=O)[C@H](Cc1ccccc1)NC(=O)c1cnccn1)B(O)O [Bortezomib]
Method: as §1

Docetaxel = compound: CC(=O)O[C@@]12CO[C@@H]1C[C@H](O)[C@@]1(C)C(=O)[C@H](O)C3=C(C)[C@@H](OC(=O)[C@H](O)[C@@H](NC(=O)OC(C)(C)C)c4ccccc4)C[C@@](O)([C@@H](OC(=O)c4ccccc4)[C@H]21)C3(C)C [Docetaxel]
Method: (§2)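 Breast cancer cell lines were grown in RPMI 1640 with 10% FBS on collagen I-coated 96-well plates and treated for 96 h (from 24 h after seeding) with 12 dilutions per drug, in triplicate. Growth was read by sulforhodamine B total-protein staining (absorbance 570 nm) relative to diluent control, and IC50 was calculated. The top dose was 1e-5 M for most drugs; Bortezomib went to 2e-5 M and Sirolimus and 17-AAG to 2e-6 M[…].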

Tamoxifen = compound: CC/C(=C(\c1ccccc1)c1ccc(OCCN(C)C)cc1)c1ccccc1 [Tamoxifen]
Method: as §2

Sorafenib = compound: CNC(=O)c1cc(Oc2ccc(NC(=O)Nc3ccc(Cl)c(C(F)(F)F)c3)cc2)ccn1 [Sorafenib]
Method: as §2

Paclitaxel = compound: CC(=O)O[C@H]1C(=O)[C@@]2(C)[C@H]([C@H](OC(=O)c3ccccc3)[C@]3(O)C[C@H](OC(=O)[C@H](O)[C@@H](NC(=O)c4ccccc4)c4ccccc4)C(C)=C1C3(C)C)[C@]1(OC(C)=O)CO[C@@H]1C[C@@H]2O [Paclitaxel]
Method: as §2

Panobinostat = compound: Cc1[nH]c2ccccc2c1CCNCc1ccc(/C=C/C(=O)NO)cc1 [Panobinostat]
Method: as §2

Brivanib = compound: Cc1cc2c(F)c(Oc3ncnn4cc(OC[C@@H](C)O)c(C)c34)ccc2[nH]1 [Brivanib]
Method: as §2

Vandetanib = compound: COc1cc2/c(=N/c3ccc(Br)cc3F)nc[nH]c2cc1OCC1CCN(C)CC1 [Vandetanib]
Method: as §2

Gefitinib = compound: COc1cc2ncnc(Nc3ccc(F)c(Cl)c3)c2cc1OCCCN1CCOCC1 [Gefitinib]
Method: as §2

Cisplatin = compound: N.N.[Cl][Pt][Cl] [Cisplatin]
Method: as §2

Nutlin-3 = compound: COc1ccc(C2=N[C@@H](c3ccc(Cl)cc3)[C@@H](c3ccc(Cl)cc3)N2C(=O)N2CCNC(=O)C2)c(OC(C)C)c1 [Nutlin-3]
Method: as §2

Doxorubicin = compound: COc1cccc2c1C(=O)c1c(O)c3c(c(O)c1C2=O)C[C@@](O)(C(=O)CO)C[C@@H]3O[C@H]1C[C@H](N)[C@H](O)[C@H](C)O1 [Doxorubicin]
Method: as §2

Methotrexate = compound: CN(Cc1cnc2nc(N)nc(N)c2n1)c1ccc(C(=O)N[C@@H](CCC(=O)O)C(=O)O)cc1 [Methotrexate]
Method: as §2

Dasatinib = compound: Cc1nc(Nc2ncc(C(=O)Nc3c(C)cccc3Cl)s2)cc(N2CCN(CCO)CC2)n1 [Dasatinib]
Method: as §2

Tipifarnib = compound: Cn1cncc1[C@@](N)(c1ccc(Cl)cc1)c1ccc2c(c1)c(-c1cccc(Cl)c1)cc(=O)n2C [Tipifarnib]
Method: as §2

Vorinostat = compound: O=C(CCCCCCC(=O)Nc1ccccc1)NO [Vorinostat]
Method: as §2

Mitoxantrone = compound: O=C1c2c(O)ccc(O)c2C(=O)c2c(NCCNCCO)ccc(NCCNCCO)c21 [Mitoxantrone]
Method: as §2

MI-219 = compound: CC(C)(C)C[C@H]1N[C@@H](C(=O)NCC[C@H](O)CO)[C@H](c2cccc(Cl)c2)[C@@]12C(=O)Nc1cc(Cl)c(F)cc12 [MI-219]
Method: as §2

5-Fluorouracil = compound: O=c1[nH]cc(F)c(=O)[nH]1 [5-Fluorouracil]
Method: as §2

Lapatinib = compound: CS(=O)(=O)CCNCc1ccc(-c2ccc3ncnc(Nc4ccc(OCc5cccc(F)c5)c(Cl)c4)c3c2)o1 [Lapatinib]
Method: as §2

Azacitidine = compound: Nc1ncn([C@@H]2O[C@H](CO)[C@@H](O)[C@H]2O)c(=O)n1 [Azacitidine]
Method: as §2

Serdemetan = compound: c1ccc2c(CCNc3ccc(Nc4ccncc4)cc3)c[nH]c2c1 [Serdemetan]
Method: as §2

Erlotinib = compound: C#Cc1cccc(Nc2ncnc3cc(OCCOC)c(OCCOC)cc23)c1 [Erlotinib]
Method: as §2

Sunitinib = compound: CCN(CC)CCNC(=O)c1c(C)[nH]c(/C=C2\C(=O)Nc3ccc(F)cc32)c1C [Sunitinib]
Method: as §2

ARQ197 = compound: O=C1NC(=O)[C@@H](c2cn3c4c(cccc24)CCC3)[C@@H]1c1c[nH]c2ccccc12 [ARQ197]
Method: as §2

Quisinostat = compound: Cn1cc(CNCC2CCN(c3ncc(C(=O)NO)cn3)CC2)c2ccccc21 [Quisinostat]
Method: as §2

Belinostat = compound: O=C(/C=C/c1cccc(S(=O)(=O)Nc2ccccc2)c1)NO [Belinostat]
Method: as §2

Decitabine = compound: Nc1ncn([C@H]2C[C@H](O)[C@@H](CO)O2)c(=O)n1 [Decitabine]
Method: as §2

HCC 1395
IC50 (SRB growth assay) (Sirolimus): 0.636 nM | IC50 (SRB growth assay) (17-AAG): 140 nM | IC50 (SRB growth assay) (Bortezomib): 5.53 nM | IC50 (SRB growth assay) (Docetaxel): 0.408 nM | IC50 (SRB growth assay) (Tamoxifen): 7580 nM | IC50 (SRB growth assay) (Sorafenib): 6310 nM | IC50 (SRB growth assay) (Paclitaxel): 1.76 nM | IC50 (SRB growth assay) (Panobinostat): 26.6 nM | IC50 (SRB growth assay) (Brivanib): > 10000 nM | IC50 (SRB growth assay) (Vandetanib): 7740 nM | IC50 (SRB growth assay) (Gefitinib): > 10000 nM | IC50 (SRB growth assay) (Cisplatin): > 10000 nM | IC50 (SRB growth assay) (Nutlin-3): > 10000 nM | IC50 (SRB growth assay) (Doxorubicin): 55.5 nM | IC50 (SRB growth assay) (Methotrexate): 1940 nM | IC50 (SRB growth assay) (Dasatinib): > 10000 nM | IC50 (SRB growth assay) (Tipifarnib): 469 nM | IC50 (SRB growth assay) (Vorinostat): 2390 nM | IC50 (SRB growth assay) (Mitoxantrone): 26.1 nM | IC50 (SRB growth assay) (MI-219): > 10000 nM | IC50 (SRB growth assay) (5-Fluorouracil): 3750 nM | IC50 (SRB growth assay) (Lapatinib): 3750 nM | IC50 (SRB growth assay) (Azacitidine): 2180 nM | IC50 (SRB growth assay) (Serdemetan): 1520 nM | IC50 (SRB growth assay) (Erlotinib): > 10000 nM | IC50 (SRB growth assay) (Sunitinib): 8600 nM | IC50 (SRB growth assay) (ARQ197): 381 nM | IC50 (SRB growth assay) (Quisinostat): 13 nM | IC50 (SRB growth assay) (Belinostat): 1070 nM | IC50 (SRB growth assay) (Decitabine): > 10000 nM

HCC 1419
IC50 (SRB growth assay) (Sirolimus): 0.195 nM | IC50 (SRB growth assay) (17-AAG): 14 nM | IC50 (SRB growth assay) (Bortezomib): 4.28 nM | IC50 (SRB growth assay) (Docetaxel): 15.2 nM | IC50 (SRB growth assay) (Tamoxifen): 4580 nM | IC50 (SRB growth assay) (Sorafenib): 3450 nM | IC50 (SRB growth assay) (Paclitaxel): 33.3 nM | IC50 (SRB growth assay) (Panobinostat): 6.31 nM | IC50 (SRB growth assay) (Brivanib): > 10000 nM | IC50 (SRB growth assay) (Vandetanib): 3540 nM | IC50 (SRB growth assay) (Gefitinib): 2680 nM | IC50 (SRB growth assay) (Cisplatin): > 10000 nM | IC50 (SRB growth assay) (Nutlin-3): > 10000 nM | IC50 (SRB growth assay) (Doxorubicin): 153 nM | IC50 (SRB growth assay) (Methotrexate): 164 nM | IC50 (SRB growth assay) (Dasatinib): 6030 nM | IC50 (SRB growth assay) (Tipifarnib): 550 nM | IC50 (SRB growth assay) (Vorinostat): 542 nM | IC50 (SRB growth assay) (Mitoxantrone): 126 nM | IC50 (SRB growth assay) (MI-219): > 10000 nM | IC50 (SRB growth assay) (5-Fluorouracil): > 10000 nM | IC50 (SRB growth assay) (Lapatinib): 28.4 nM | IC50 (SRB growth assay) (Azacitidine): > 10000 nM | IC50 (SRB growth assay) (Serdemetan): 2450 nM | IC50 (SRB growth assay) (Erlotinib): 2720 nM | IC50 (SRB growth assay) (Sunitinib): 9930 nM | IC50 (SRB growth assay) (ARQ197): 1210 nM | IC50 (SRB growth assay) (Quisinostat): 3.8 nM | IC50 (SRB growth assay) (Belinostat): 174 nM | IC50 (SRB growth assay) (Decitabine): > 10000 nM
